Test results taken from the NIST ThermoML archive (doi:10.1016/j.jct.2005.03.016).

Conditions: Liquid, Vibrating tube method

CCO [ethanol]
mass density [kg/m3]
Conditions	100 kPa	5000 kPa	10000 kPa	15000 kPa	20000 kPa	25000 kPa	30000 kPa	35000 kPa	40000 kPa	45000 kPa
283.15 K	798	802	805.9	809.5	813	816.4	819.7	822.8	825.9	828.8
293.15 K	789.5	793.7	797.8	801.6	805.3	808.9	812.3	815.6	818.7	821.8
303.15 K	780.9	785.3	789.6	793.7	797.5	801.3	804.8	808.2	811.5	814.7
313.15 K	772.1	776.8	781.3	785.6	789.6	793.5	797.2	800.8	804.2	807.6
323.15 K	763.3	768.3	773	777.6	781.8	785.9	789.7	793.5	797.1	800.5
333.15 K	754	759.3	764.3	769.1	773.6	777.8	781.9	785.8	789.5	793.1
343.15 K	744.5	750.1	755.5	760.5	765.3	769.8	774	778.1	782	785.7
353.15 K	–	740.6	746.4	751.7	756.7	761.5	766	770.2	774.3	778.2

CC1CCCCC1 [methylcyclohexane]
mass density [kg/m3]
Conditions	100 kPa	5000 kPa	10000 kPa	15000 kPa	20000 kPa	25000 kPa	30000 kPa	35000 kPa	40000 kPa	45000 kPa
283.15 K	777.6	781.4	785.2	788.7	792.1	795.3	798.5	801.5	804.4	807.3
293.15 K	769	773	777	780.7	784.3	787.8	791.1	794.2	797.3	800.2
303.15 K	760.4	764.7	768.9	772.8	776.6	780.2	783.7	787	790.2	793.3
313.15 K	751.7	756.2	760.7	764.8	768.8	772.7	776.3	779.8	783.1	786.4
323.15 K	742.9	747.7	752.5	756.9	761.1	765.1	769	772.6	776.1	779.5
333.15 K	733.9	739	744.1	748.8	753.3	757.5	761.5	765.4	769	772.5
343.15 K	724.8	730.4	735.8	740.8	745.6	750	754.2	758.2	762.1	765.7
353.15 K	715.7	721.7	727.4	732.8	737.8	742.5	747	751.2	755.2	759
